{"source": "patent US6794347B2", "about": "“Process of making gel detergent compositions” (Unilever Home & Personal Care USA a division of Conopco, …, priority 2002, dated 2004)", "origin": "cited, not measured here", "note": "Like-named read-outs stand apart in the source and are kept apart here."}
{"smiles": "CCCCCCCCCCCCCCCC(=O)O", "note": "[Fatty acid chain length 16]", "values": [{"measurement": "Measured pKa value", "setting": "Cited from Langmuir, Vol 16, pp 172-177, 2000", "result": "8.6˜8.8"}, {"measurement": "Measured pKa value", "setting": "Cited from Proc. R. Soc. London, A133, 140, 1931", "result": 8.5}]}
